This is an account of results in patent US20220000811A1, “COMPOSITION FOR PROMOTING HAIR GROWTH COMPRISING A GUANINE DERIVATIVE” (KOREA RESEARCH INSTITUTE OF BIOSCIENCE AND BIOTECHNOLOGY, priority 2019, published 2022).

Test [1] relates to mouse embryonic fibroblasts (MEFs). Kind of test: Reprogramming into iPSCs (OSKM) in mouse embryonic fibroblasts, AP staining. It counts as cell-based. The conditions noted are these: for effect on reprogramming, number of AP+ colonies: MEFs, OSKM, after 14 days, indicated concentrations. As for the experimental part:
During reprogramming into iPSCs by introducing OSKM reprogramming factor into mouse embryonic fibroblasts (MEFs), rotenone, the guanidine derivatives of the present invention, and phenformin were treated at the indicated concentrations. After 14 days, alkaline phosphatase (AP) staining was performed (FIG. 2A), and the number of AP^+ colonies was quantified (FIG. 2b). […] In the subsequent experiment, additional efficacy was evaluated using only the three compounds showing the effective reprogramming-enhancing effect.

For test [2], the system named is human embryonic stem cells (hESCs). Kind of test: Maintaining stemness of human embryonic stem cells in unconditioned medium, AP staining. The conditions noted are these: hESCs in unconditioned medium, low dose. The format is cell-based. As for the experimental part: Additionally, the effect of the compounds of the present invention on maintaining sternness of human embryonic stern cells (hESCs) was confirmed (FIG. 4). Specifically, when hESCs were cultured in an unconditioned medium (UM), the sternness was lost, and AP activity was weakened (FIG. 4a). […] In particular, when IM176OUT05 was treated at 10 nM and 100 nM concentrations, it was confirmed that the effect of maintaining the sternness was improved by 7.6 times and 8.2 times, respectively (FIG. 4b).

Test [3] relates to human foreskin fibroblast (HFFs). Kind of test: Reprogramming into iPSCs (OSKM) in human foreskin fibroblasts, AP staining. It counts as cell-based. The conditions noted are these: OSKM, after 28 days. As for the experimental part:
After 28 days, AP staining was performed (FIG. 3a), and the number of AP^+ colonies was quantified (FIG. 3b).

Test [4] concerns C57BL/6 mice. Kind of test: Hair regeneration model, darkness of dorsal skin and hair growth. The format is in vivo, mouse. The conditions noted are these: 1% topical daily. As for the experimental part:
During the hair telogen phase, the hair on the dorsal skin of 7-week-old C57BL/6 mice (Dae Han BioLink, Chungbuk, Republic of Korea) was depilated using an animal clipper and wax (Veet, Oxy Reckitt Benckiser, Seoul, Republic of Korea). From the next day, 200 μL of placebo (control), 1% IM, 1% minoxidil, or 1% metformin was applied daily to the depilated area using a sterile cotton swab. Images of each animal were captured daily, and the degree of darkness of the color on dorsal skin was quantified in the same area (1.6 cm×3 cm) using the Image J program. The mice were sacrificed, and skin tissues on days 0, 7, 14, and 20 were obtained. Half of the tissues were used for RNA isolation, and the other half were fixed with 4% paraformaldehyde overnight for histochemical analysis. It was confirmed whether the IM compound can promote hair growth without showing toxicity or other side effects through mouse experiments. In 7-week-old C57BL/6 mice, the telogen phase was motivated by hair removal, and various concentrations of IM were applied topically to the dorsal skin of the mice daily.

The test system of test [5] is K15/β-catenin, Ki67/Shh, K15/PDK, Ki67/PDH populations. The test can be described thus: FACS analysis of single skin cells. The format is in vivo, mouse. As for the experimental part: During the hair telogen phase, the hair on the dorsal skin of 7-week-old C57BL/6 mice (Dae Han BioLink, Chungbuk, Republic of Korea) was depilated using an animal clipper and wax (Veet, Oxy Reckitt Benckiser, Seoul, Republic of Korea). From the next day, 200 μL of placebo (control), 1% IM, 1% minoxidil, or 1% metformin was applied daily to the depilated area using a sterile cotton swab. Images of each animal were captured daily, and the degree of darkness of the color on dorsal skin was quantified in the same area (1.6 cm×3 cm) using the Image J program. The mice were sacrificed, and skin tissues on days 0, 7, 14, and 20 were obtained. Half of the tissues were used for RNA isolation, and the other half were fixed with 4% paraformaldehyde overnight for histochemical analysis. After the mice were perfused with PBS to remove blood, the skin tissue was harvested and cut into small pieces. The tissue was digested with trypsin (Thermo Fisher Scientific) at 37° C. for 150 minutes, then filtered through a 75 μm nylon mesh, followed by filtering through a 30 μm mesh (BD Biosciences). Single cells were fixed, permeabilized, and blocked according to the immunostaining protocol. The cells were stained with specific antibodies (Table 1 above) and analyzed with BD Accuri™ C6 (BD Biosciences)

As to `NC(=Nc1ccc(OC(F)(F)F)cc1)N=C(N)N1CCCC1` [IM156], the “effect on reprogramming, number of AP+ colonies” value (“effect on reprogramming, number” below) in test [1] is “did not show an effect of promoting reprogramming”.

Turning to `N=C(N)NC(=N)NCCc1ccc(Cl)c(Cl)c1` [IM176OUT04, N-1-(3,4-dichloro)phenethylbiguanide], in test [2], the “AP staining (stemness)” value is given as “increase in AP staining”. The “concentration with the most excellent reprogramming efficacy” value in test [3] stood at 10 nM. For the same molecule, in test [1], the “effect on reprogramming, number” value is “increased”.

For the molecule `Cc1ccc(CCNC(=N)N)cc1C` [IM177OUT02, 1-(3,4-dimethylphenethyl)guanide], in test [2], the “AP staining (stemness)” value is listed as “increase in AP staining”. In addition, in test [3], the “concentration with the most excellent reprogramming efficacy” value is 10 nM. Besides, in test [1], the “effect on reprogramming, number” value is “increased”.

As to `C=C(C)[C@H]1Cc2c(ccc3c2O[C@@H]2COc4cc(OC)c(OC)cc4[C@@H]2C3=O)O1` [Rotenone, reference compound], in test [1] (sub-toxic dose (10 nM)), the “promotion of reprogramming of somatic cells” value is “efficiently promote reprogramming”.

`CN(C)C(=N)N=C(N)N` [metformin, reference compound]: the “hair growth effect overall” value in test [4] is “did not show a remarkable effect”. The “darkness intensity on the dorsal skin compared to control” value in test [4] (from day 8) was “slightly was increased”.

As for `Nc1cc(N2CCCCC2)nc(N)[n+]1[O-]` [minoxidil, reference compound], in test [5] (day 7, FACS), the “K15+/β-catenin+ population in single skin cells” value is given as 6.0% and the “Ki67+/PDH+ population” value came out at 8.3%. Further, the “Ki67+/Shh+ population in single skin cells” value in test [5] (day 20, FACS) is 34%.

As for `[H]/N=C(/N)N/C(=N/[H])NCCc1ccccc1` [phenformin, reference compound], in test [1], the “effect on reprogramming, number” value is on record as “did not show an effect of promoting reprogramming”.
